Holding throughout (format): in vivo
Data set [1] is described as follows: Example 9 mouse pharmacokinetic study. The conditions noted are these: serum, PO 30 mg/kg vs IV 3 mg/kg, male CD-1 mice. The protocol: The plasma exposure of male CD-1 mice to indole and indole-related test articles (TAs) following intravenous (IV, 3 mg/kg) and oral (PO, 30 mg/kg) routes of administration was measured. This model was used to investigate the bioavailability of indole and indole-related TAs in mouse. Mice were selected for the study since they are an accepted species frequently used in pre-clinical evaluation of drugs intended for human use.
Male CD-1 mice (7-8 weeks old) were obtained from Charles River Laboratories (Wilmington, Mass.). Two groups (N=18 and 27) of male CD-1 mice were used for the study. Upon arrival, the animals were placed on Rodent Diet 5001 (Purina Mills, Inc., St. Louis, Mo.). […]
All animals were weighed on study day (1) and the body weights were recorded and used for dose calculation. […] Clinical observations were recorded as needed.
Analysis of serum samples was performed by LC/MS/MS (Waters Quattro Premier, Milford, Mass.). Areas under curves (AUC) were calculated using Graphpad Prism Version 4. Bioavailability was calculated using the following equation: […]
where AUC0-t=total area under curve at the last measurable time point Based on the serum levels analyzed by LC/MS/MS, the calculated bioavailability of indole and indole-related TAs in CD-1 mice is summarized in Table 4.3.

Data set [2] deals with C57BL/6J mouse model of obesity. In words: Example 10 mouse diet-induced obesity. The conditions noted are these: low fat control diet (D12328) with vs without test article. An excerpt:
The high-fat diet-fed C57BL/6J mouse model of human diabetes, originally introduced by Surwit and colleagues (Surwit, R S, et al. (1988) “Diet-induced type […] diabetes in C57BL/6J mice”, Diabetes 37: 1163-1167) is a widely accepted, clinically relevant, polygenic model that induces obesity, dyslipidemia, glucose- and insulin-resistance as early as 3 weeks after commencing the high fat diet (Winzell, M S and Ahren, B (2004) “The high-fat diet-fed mouse: a model for studying mechanisms and treatment of impaired glucose tolerance and type 2 diabetes”, Diabetes 53 Suppl 3: S215-219). This model was used to investigate the effects of indole and indole-related Test Articles. Avandia (rosiglitazone) was used as a control Test Article. […]
In these studies and the accompanying figures, Diet D12328 from Research Diets is referred to as the “Low Fat” or Control diet/chow, while Diet D12331 from Research Diets is referred to as the “High Fat” diet. […] The Test Article content was calculated such that ad libitum consumption by the animals would deliver doses (in mg of Test Article per kg animal weight per day) approximating those listed in Table 5.
Animals were maintained on the diets for up to eleven weeks. Body weights were recorded weekly. […] The serum was analyzed for glucose, total cholesterol, triglycerides (TG) and lysophospholipid (LPC) content. […]

A short description of data set [3]: Example 14 toxicology, daily oral gavage for 5 consecutive days. Particulars: mice. An excerpt:
The purpose of this study was to evaluate the toxicity of indole and indole-related Test Articles when administered daily via oral gavage to mice for 5 consecutive days.
Assessment of toxicity was based on mortality; clinical signs, body weight, food consumption, clinical pathology, and macroscopic pathology data.

SMILES strings stand for the structures.

Consider one compound from patent publication US20090318492A1, “INDOLE COMPOUNDS HAVING C4-ACIDIC SUBSTITUENTS AND USE THEREOF AS PHOSPHOLIPASE-A2 INHIBITORS” (priority 2005, published 2009).

The term bioavailability denotes dose-corrected exposure relative to a reference, in per cent. Read a high bioavailability as much systemic uptake.

`Cc1c(C(=O)C(N)=O)c2c(OCC(=O)NS(=O)(=O)CCCC(=O)O)cccc2n1Cc1ccccc1` [ILY-IV-40, 4-[2-(3-Aminooxalyl-1-benzyl-2-methyl-1H-indol-4-yloxy)-acetylsulfamoyl]-butyric acid] showed a bioavailability in data set [1] of 0.5%. Moreover, the “effect in animals fed a low fat control diet” value in data set [2] was “No or little effect”. For the same compound, the “clinical pathology differences between vehicle control group and treated groups attributable to test article” value in data set [3] is given as “no differences”.
